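The concentration for 50% growth inhibition is given as GI50. TGI denotes the concentration required for complete inhibition of growth.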
Legend:
Experiment in all cases: inhibition of tumour cell growth, NCI panel, 384-well format
SK-OV-3 ovarian = test system: SK-OV-3 ovarian
TK-10 renal = test system: TK-10 renal
MOLT-4 leukemia = test system: MOLT-4 leukemia
HT29 colon = test system: HT29 colon
SF-268 CNS = test system: SF-268 CNS
NCI-H226 lung = test system: NCI-H226 lung
HOP-62 NSCLC = test system: HOP-62 NSCLC
ACHN renal = test system: ACHN renal
DU-145 prostate = test system: DU-145 prostate
NCI/ADR-RES ovarian = test system: NCI/ADR-RES ovarian
M14 melanoma = test system: M14 melanoma
SNB-75 CNS = test system: SNB-75 CNS
UACC-62 melanoma = test system: UACC-62 melanoma
MDA-MB-468 breast = test system: MDA-MB-468 breast
NCI-H522 lung = test system: NCI-H522 lung
K-562 leukemia = test system: K-562 leukemia
BT-549 breast = test system: BT-549 breast
SK-MEL-5 melanoma = test system: SK-MEL-5 melanoma
MALME-3M melanoma = test system: MALME-3M melanoma
SNB-19 CNS = test system: SNB-19 CNS
A498 renal = test system: A498 renal
HCT-15 colon = test system: HCT-15 colon
OVCAR-8 ovarian = test system: OVCAR-8 ovarian
CAKI-1 renal = test system: CAKI-1 renal
NCI-H460 NSCLC = test system: NCI-H460 NSCLC
UACC-257 melanoma = test system: UACC-257 melanoma
786-0 renal = test system: 786-0 renal
EKVX NSCLC = test system: EKVX NSCLC
HS 578T breast = test system: HS 578T breast

## O=C(CC1(O)C(=O)Nc2c(Cl)ccc(Cl)c21)c1ccc(C2CC2)cc1 (configuration not stated)
SK-OV-3 ovarian
  TGI: 14100 nM
TK-10 renal
  GI50: 10400 nM
  TGI: 25200 nM
MOLT-4 leukemia
  GI50: 47.3 nM
  TGI: 135 nM
HT29 colon
  GI50: 50.5 nM
  TGI: 248 nM
SF-268 CNS
  GI50: 387 nM
  TGI: 11200 nM
NCI-H226 lung
  GI50: 732 nM
  TGI: 14200 nM
HOP-62 NSCLC
  GI50: 199 nM
  TGI: 13400 nM
ACHN renal
  GI50: 743 nM
  TGI: 17200 nM
DU-145 prostate
  GI50: 338 nM
  TGI: 2490 nM
NCI/ADR-RES ovarian
  GI50: 69.2 nM
  TGI: 276 nM
M14 melanoma
  GI50: 54 nM
  TGI: 266 nM
SNB-75 CNS
  GI50: 96.7 nM
  TGI: 3170 nM
UACC-62 melanoma
  GI50: 38.9 nM
  TGI: 5040 nM
MDA-MB-468 breast
  GI50: 30.2 nM
  TGI: 94.4 nM
NCI-H522 lung
  GI50: 45.1 nM
  TGI: 179 nM
K-562 leukemia
  GI50: 46.2 nM
  TGI: 211 nM
BT-549 breast
  GI50: 49 nM
  TGI: 2730 nM
SK-MEL-5 melanoma
  GI50: 142 nM
  TGI: 414 nM
MALME-3M melanoma
  GI50: 61.5 nM
  TGI: 10300 nM
SNB-19 CNS
  GI50: 528 nM
  TGI: 15300 nM
A498 renal
  GI50: 226 nM
  TGI: 10700 nM
HCT-15 colon
  GI50: 51.9 nM
  TGI: 2060 nM
OVCAR-8 ovarian
  GI50: 257 nM
  TGI: 1230 nM
CAKI-1 renal
  GI50: 173 nM
  TGI: 15200 nM
NCI-H460 NSCLC
  GI50: 225 nM
  TGI: 611 nM
UACC-257 melanoma
  GI50: 280 nM
  TGI: 2340 nM
786-0 renal
  GI50: 377 nM
  TGI: 12000 nM
EKVX NSCLC
  GI50: 385 nM
  TGI: 16900 nM
HS 578T breast
  GI50: 119 nM
  TGI: 284 nM

— PubChem BioAssay (NCI)
